From the supplement of paper PMC10307832

What was measured:
Experiment in all cases: relative viability (nuclei count vs DMSO), 5 days (fraction); higher = more cells survive
A-427 = test system: A-427
How it was run: (§1)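 Values are medians from duplicate plates. Each reflects relative viability, defined as the nuclei count of treated wells over that of vehicle wells. Lung cancer cell lines in 1536-well plates were pin-tool dosed one day after seeding with one drug alone or with a fixed anchor-drug dose plus five library-drug doses (not always all listed) in √10 steps, then fixed, stained and imaged at 4× after 5 days.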

COR-L 105 = test system: COR-L 105
How it was run: as §1

ChaGo-K-1 = test system: ChaGo-K-1
How it was run: as §1

EKVX = test system: EKVX
How it was run: as §1

EMC-BAC-2 = test system: EMC-BAC-2
How it was run: as §1

EPLC-272H = test system: EPLC-272H
How it was run: as §1

HARA = test system: HARA
How it was run: as §1

HCC-44 = test system: HCC-44
How it was run: as §1

LK-2 = test system: LK-2
How it was run: as §1

LU99A = test system: LU99A
How it was run: as §1

NCI-H1650 = test system: NCI-H1650
How it was run: as §1

NCI-H1734 = test system: NCI-H1734
How it was run: as §1

NCI-H1755 = test system: NCI-H1755
How it was run: as §1

NCI-H1792 = test system: NCI-H1792
How it was run: as §1

NCI-H2405 = test system: NCI-H2405
How it was run: as §1

NCI-H460 = test system: NCI-H460
How it was run: as §1

NCI-H596 = test system: NCI-H596
How it was run: as §1

NCI-H647 = test system: NCI-H647
How it was run: as §1

RERF-LC-KJ = test system: RERF-LC-KJ
How it was run: as §1

`Cc1cn(-c2cc(NC(=O)c3ccc(C)c(Nc4nccc(-c5cccnc5)n4)c3)cc(C(F)(F)F)c2)cn1` [Nilotinib] + CC1(C)CCC(c2ccc(Cl)cc2)=C(CN2CCN(c3ccc(C(=O)NS(=O)(=O)c4ccc(N[C@H](CCN5CCOCC5)CSc5ccccc5)c(S(=O)(=O)C(F)(F)F)c4)cc3)CC2)C1 [Navitoclax] (partner 0.5 µM) showed a relative viability (A-427; first compound 0.001 µM) of 0.984, a relative viability (A-427; first compound 0.01 µM) of 0.998 and a relative viability (A-427; first compound 0.03162 µM) of 0.908. It also gave a relative viability (A-427; first compound 0.1 µM) of 0.923, a relative viability (COR-L 105; first compound 0.001 µM) of 0.709 and a relative viability (COR-L 105; first compound 0.01 µM) of 0.696. For the same compound, the relative viability (COR-L 105; first compound 0.03162 µM) was 0.644, the relative viability (COR-L 105; first compound 0.1 µM) was 0.848 and the relative viability (ChaGo-K-1; first compound 0.001 µM) was 1.47. The relative viability (ChaGo-K-1; first compound 0.003162 µM) was 0.924, the relative viability (ChaGo-K-1; first compound 0.01 µM) was 1.06 and the relative viability (ChaGo-K-1; first compound 0.03162 µM) was 0.754. For the same compound, the relative viability (ChaGo-K-1; first compound 0.1 µM) was 0.787, the relative viability (EKVX; first compound 0.001 µM) was 0.795 and the relative viability (EKVX; first compound 0.003162 µM) was 1.29. It also gave a relative viability (EKVX; first compound 0.01 µM) of 1.42, a relative viability (EKVX; first compound 0.03162 µM) of 0.764 and a relative viability (EKVX; first compound 0.1 µM) of 1.21. It also gave a relative viability (EMC-BAC-2; first compound 0.001 µM) of 0.919, a relative viability (EMC-BAC-2; first compound 0.003162 µM) of 1.45 and a relative viability (EMC-BAC-2; first compound 0.01 µM) of 1.69. For the same compound, the relative viability (EMC-BAC-2; first compound 0.03162 µM) was 0.852, the relative viability (EMC-BAC-2; first compound 0.1 µM) was 1.23 and the relative viability (EPLC-272H; first compound 0.001 µM) was 1.1. For the same compound, the relative viability (EPLC-272H; first compound 0.003162 µM) was 1.32, the relative viability (EPLC-272H; first compound 0.01 µM) was 1.5 and the relative viability (EPLC-272H; first compound 0.03162 µM) was 0.804. It also gave a relative viability (EPLC-272H; first compound 0.1 µM) of 1.28, a relative viability (HARA; first compound 0.001 µM) of 1.07 and a relative viability (HARA; first compound 0.003162 µM) of 1.26. It also gave a relative viability (HARA; first compound 0.01 µM) of 1.24, a relative viability (HARA; first compound 0.03162 µM) of 1.06 and a relative viability (HARA; first compound 0.1 µM) of 1.15. The relative viability (HCC-44; first compound 0.001 µM) was 0.845, the relative viability (HCC-44; first compound 0.003162 µM) was 1.22 and the relative viability (HCC-44; first compound 0.01 µM) was 1.39. The relative viability (HCC-44; first compound 0.03162 µM) was 0.844, the relative viability (HCC-44; first compound 0.1 µM) was 0.999 and the relative viability (LK-2; first compound 0.001 µM) was 0.759. For the same compound, the relative viability (LK-2; first compound 0.003162 µM) was 0.939, the relative viability (LK-2; first compound 0.01 µM) was 1 and the relative viability (LK-2; first compound 0.03162 µM) was 0.743. It also gave a relative viability (LK-2; first compound 0.1 µM) of 0.945, a relative viability (LU99A; first compound 0.001 µM) of 0.761 and a relative viability (LU99A; first compound 0.003162 µM) of 0.904. The relative viability (LU99A; first compound 0.01 µM) was 0.985, the relative viability (LU99A; first compound 0.03162 µM) was 0.76 and the relative viability (LU99A; first compound 0.1 µM) was 0.479. For the same compound, the relative viability (NCI-H1650; first compound 0.001 µM) was 1.15, the relative viability (NCI-H1650; first compound 0.003162 µM) was 1.26 and the relative viability (NCI-H1650; first compound 0.01 µM) was 1.45. It also gave a relative viability (NCI-H1650; first compound 0.03162 µM) of 0.99, a relative viability (NCI-H1650; first compound 0.1 µM) of 1.11 and a relative viability (NCI-H1734; first compound 0.001 µM) of 0.704. For the same compound, the relative viability (NCI-H1734; first compound 0.003162 µM) was 1.03, the relative viability (NCI-H1734; first compound 0.01 µM) was 1.06 and the relative viability (NCI-H1734; first compound 0.03162 µM) was 0.434. For the same compound, the relative viability (NCI-H1734; first compound 0.1 µM) was 0.543, the relative viability (NCI-H1755; first compound 0.001 µM) was 0.969 and the relative viability (NCI-H1755; first compound 0.003162 µM) was 1.1. For the same compound, the relative viability (NCI-H1755; first compound 0.01 µM) was 1.08, the relative viability (NCI-H1755; first compound 0.03162 µM) was 0.83 and the relative viability (NCI-H1755; first compound 0.1 µM) was 0.93. It also gave a relative viability (NCI-H1792; first compound 0.001 µM) of 0.523, a relative viability (NCI-H1792; first compound 0.01 µM) of 0.907 and a relative viability (NCI-H1792; first compound 0.1 µM) of 0.794. For the same compound, the relative viability (NCI-H2405; first compound 0.001 µM) was 0.733, the relative viability (NCI-H2405; first compound 0.003162 µM) was 0.761 and the relative viability (NCI-H2405; first compound 0.01 µM) was 0.764. It also gave a relative viability (NCI-H2405; first compound 0.03162 µM) of 0.596, a relative viability (NCI-H2405; first compound 0.1 µM) of 0.439 and a relative viability (NCI-H460; first compound 0.001 µM) of 1.02. For the same compound, the relative viability (NCI-H460; first compound 0.003162 µM) was 1.48, the relative viability (NCI-H460; first compound 0.01 µM) was 1.76 and the relative viability (NCI-H460; first compound 0.03162 µM) was 0.628. The relative viability (NCI-H460; first compound 0.1 µM) was 0.975, the relative viability (NCI-H596; first compound 0.001 µM) was 0.924 and the relative viability (NCI-H596; first compound 0.003162 µM) was 1.12. It also gave a relative viability (NCI-H596; first compound 0.01 µM) of 1.13, a relative viability (NCI-H596; first compound 0.03162 µM) of 0.673 and a relative viability (NCI-H596; first compound 0.1 µM) of 0.922. For the same compound, the relative viability (NCI-H647; first compound 0.001 µM) was 0.952, the relative viability (NCI-H647; first compound 0.003162 µM) was 1.42 and the relative viability (NCI-H647; first compound 0.01 µM) was 1.26. The relative viability (NCI-H647; first compound 0.03162 µM) was 0.997, the relative viability (NCI-H647; first compound 0.1 µM) was 0.974 and the relative viability (RERF-LC-KJ; first compound 0.001 µM) was 1.07. The relative viability (RERF-LC-KJ; first compound 0.003162 µM) was 0.949, the relative viability (RERF-LC-KJ; first compound 0.01 µM) was 1.24 and the relative viability (RERF-LC-KJ; first compound 0.03162 µM) was 1.15. For the same compound, the relative viability (RERF-LC-KJ; first compound 0.1 µM) was 1.08.
